Measurements reported in patent US20130040903A1, “PHARMACEUTICAL COMPOSITIONS FOR TREATING DEPRESSION AND ANXIETY” (priority 2007, published 2013).

Tests used:
ICR mice = experiment: Resetpine-induced mouse body temperature decrease experiment (Experiments 2, 5, 7); format: in vivo; conditions: Experiment 5; 3 mg/kg P.O. 7 days; 4 hours after Resetpine 2 mg/kg i.p.
Procedure: 2.5.1 Group division and administration of drug: The mice are grouped randomly, and 10 mice are in each group. 1. High dose of Embodiment 1 (80 mg/kg, P.O., administered for 7 days); 2. middle dose of Embodiment 1 (40 mg/kg, P.O., administered for 7 days); 3. low dose of Embodiment 1 (20 mg/kg, P.O., administered for 7 days); 4.
2.5.2 Experimental method: After 1 hour of the last administration of drug on the eighth day, the mouse's anal temperature is determined. Then 2 mg of Resetpine per kilogram of the body weight is given by intraperitoneal injection. After 4 hours of injecting Resetpine, mouse's anal temperature is determined once again. The depth and time of injecting the thermometer into mouse's anus are identical in each temperature measurement.
5.5.1 Group division and administration of drug: The mice are grouped randomly, and 10 mice are in each group. 1. […]
5.5.2 Experimental method: After 1 hour of the last administration of drug on the eighth day, the mouse's anal temperature is determined. […] After 4 hours of injecting Resetpine, mouse's anal temperature is determined once again. […]
2.5.2 Experimental method: After 1 hour of the last administration of drug on the eighth day, the mouse's anal temperature is determined. […] After 4 hours of injecting Resetpine, mouse's anal temperature is determined once again. […]

Kunming (KM) mice = experiment: Mouse light-dark transition experiment (Experiments 3, 10); format: in vivo; conditions: 2.5 mg/kg into the stomach once daily 7 days, within 10 minutes
Procedure: 3.5.1 Group division and administration of drug: The mice are grouped randomly as 5 groups, and 10 mice are in each group. 1. High dose of Embodiment 1 (80 mg/kg); 2. middle dose of Embodiment 1 (40 mg/kg); 3. low dose of Embodiment 1 (20 mg/kg); 4. Diazepam (2.5 mg/kg); and 5. physiological saline (normal saline, NS). The drugs are fed into the mouse stomach once every day, and the mouse is administered for continuous 7 days. In the period of administration, the mouse eats and drinks freely, and the experiment is proceeded after 1 hour of the last administration of drug on the eighth day.
Mouse light-dark transition test: The dark chamber occupies one third of the light-dark transition chamber (44 cm×21 cm×21 cm), and the top is capped. The light chamber occupies two third thereof and is illuminated brightly. […] The times that the mouse enters into the dark chamber and returns to the light chamber within 10 minutes are determined, and the times thereof are being the index for evaluating the anti-anxiety function of the drugs. […]
Mouse light-dark transition test: The dark chamber occupies one third of the light-dark transition chamber (44 cm×21 cm×21 cm), and the top is capped. […] The times that the mouse enters into the dark chamber and returns to the light chamber within 10 minutes are determined, and the times thereof are being the index for evaluating the anti-anxiety function of the drugs.

With `Fc1ccc([C@@H]2CCNC[C@H]2COc2ccc3c(c2)OCO3)cc1` [Paroxetine] as the compound, how does the Time of non-movement (ICR mice) read?
Its Time of non-movement is 2.38 ± 0.69 s.

How did the “Times of passing from dark chamber to light chamber” value (Kunming (KM) mice; Experiment 3) turn out when `CN1C(=O)CN=C(c2ccccc2)c2cc(Cl)ccc21` [Diazepam] was run?
The value was 11.3 ± 4.54.

What about the “Times of passing from dark chamber to light chamber” value (Kunming (KM) mice; Experiment 10) of the same compound?
The value was 11.7 ± 4.47.
